Assay results as given in patent US20250268894A1, “MACROCYCLE COMPOUNDS FOR THE TREATMENT OF CANCER” (Hoffmann-La Roche Inc., priority 2022, published 2025).

Experiments:
[1] = molecular target: KRAS G12D-BRAF complex (Homo sapiens (Human), UniProt P01116+P62937, G12D); assay: KRAS-BRAF with CYPA (500 nM) interaction assay (TR-FRET), G12D; type: biochemical
Description: (§1) Kras-BRAF with CYPA (500 nM) Interaction Assay In this example, TR-FRET was also used to measure the compound or compound-CYPA dependent disruption of the KRAS G12C-BRAF complex. This protocol was also used to measure disruption of KRAS G12D or KRAS G12V binding to BRAF by a compound of the invention, respectively. […] Compound was present in plate wells as a 16-point 3-fold dilution series starting at a final concentration of 10 μM and incubated for 3 hours. […] TR-FRET signal was read on a […] microplate reader (Ex320 nm, Em 665/615 nm). Compounds that facilitate disruption of the KRAS-BRAF complex were identified as those eliciting a decrease in the TR-FRET ratio relative to DMSO control wells.

[2] = test system: NCI-H358 cells (KRAS G12C); assay: Cell viability assay (Cell Counting Kit-8), KRAS G12C; type: cell-based; conditions: Homo sapiens, NCI-H358, 72 hrs
Description: (§2) The purpose of this cellular assay was to determine the effects of test compounds on the proliferation of human cancer cell lines NCI-H358 (ATCC-CRL5807) cells, AGS (ATCC-CRL-1739) cells, SW620 (ATCC-CCL-227) over a 3-day treatment period by quantifying the amount of NADPH present at endpoint using Cell Counting Kit-8.
(§3) Cells were seeded at 5,000 cells/well (NCI-H358), 2,000 cells/well (AGS)2,000 cells/well (SW620) in 96-well assay plates (Corning-3699) and incubated overnight. On the day of the assay, diluted compounds were then added in a final concentration of 0.5% DMSO. After 72 hrs incubation, a tenth of the volume of cell counting kit 8 (Dnjindo-CK04) was added into each well. Read the signal (OD450 minus OD650) using EnVision after 2 hrs incubation. IC50 was determined by fitting a 4-parameter sigmoidal concentration response model.

[3] = molecular target: KRAS G12V-BRAF complex (Homo sapiens (Human), UniProt P01116+P62937, G12V); assay: KRAS-BRAF with CYPA (500 nM) interaction assay (TR-FRET), G12V; type: biochemical
Chain of KRAS G12V-BRAF complex (P01116-2 other isoform, or with tags, fused parts or gaps G12V): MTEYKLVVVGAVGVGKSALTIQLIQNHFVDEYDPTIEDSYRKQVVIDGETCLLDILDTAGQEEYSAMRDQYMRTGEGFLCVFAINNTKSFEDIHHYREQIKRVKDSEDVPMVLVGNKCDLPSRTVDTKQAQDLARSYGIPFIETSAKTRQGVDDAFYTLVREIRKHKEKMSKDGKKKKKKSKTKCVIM
Chain of KRAS G12V-BRAF complex (P62937 whole entry): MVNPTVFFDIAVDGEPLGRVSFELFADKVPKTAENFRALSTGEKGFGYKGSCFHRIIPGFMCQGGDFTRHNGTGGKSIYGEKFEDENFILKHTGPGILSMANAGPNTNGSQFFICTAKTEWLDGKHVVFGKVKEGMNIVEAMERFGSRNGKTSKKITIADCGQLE
Description: as §1

[4] = test system: phosphorylation of ERK, KRAS G12V in SW620 cells; assay: pERK inhibition assay, KRAS G12V in SW620; type: cell-based, human; conditions: Homo sapiens, SW-620, SW620, 4 hours
Description: (§4) This assay is to measure the ability of test compounds in inhibiting the phosphorylation of ERK, the downstream signaling of KRAS G12C in NCI-H358 cells, KRAS G12D in AGS cells, and KRAS G12V in SW620. NCI-H358 (ATCC-CRL5807) cells, AGS (ATCC-CRL-1739) cells, SW620 (ATCC-CCL-227) cells were all grown and maintained using RPMI-1640 medium (Thermo Fisher Scientific) with 10% fetal bovine serum and 1% penicillin/streptomycin. On the day prior to compound addition, cells were plated in tissue culture-treated 96 well plates (Corning-3699) at a density of 30,000 cell/well, 20,000 cell/well, 30,000 cell/well for NCI-H358, AGS and SW620 respectively, and allowed for attachment overnight. Diluted compounds were then added in a final concentration of 0.5% DMSO. After 4 hours of incubation, the medium was removed, 100 μL of 4% formaldehyde was added, and the assay plates were incubated at room temperature for 20 minutes. The plates were then washed once with phosphate buffered saline (PBS), and permeabilized with 100 μL of chilled methanol for 10 minutes. Non-specific antibody binding to the plates was blocked using 50 μL 1X BSA blocking buffer (Thermo-37520, 10-fold dilution by Phosphate-Buffered Saline Tween (PBST) for at least 1 hour at room temperature.
(§5) The amount of phosphor-ERK was determined using an antibody specific for phosphorylated form of ERK. Primary antibody (PERK, CST-4370, Cell Signaling Technology) was diluted 1:300 in blocking buffer, with 50 μL aliquoted to each well, and incubated overnight at 4° C. Cells was washed five times for 5 minutes with PBST. Secondary antibody (HRP-linked anti-rabbit IgG, CST-7074, Cell Signaling Technology) was diluted 1:1000 in blocking buffer, and 50 μL was added to each well and incubated 1-2 hrs at room temperature. Cells was washed […] for 5 minutes with PBST, 100 μL TMB ELISA substrate (abcam-ab171523) were added and gently shake for 20 minutes. 50 μL stop solution (abcam-ab171529) were added, and then read the signal (OD450) by EnVision.
(§6) IC50 was determined by fitting a 4-parameter sigmoidal concentration response model.

[5] = molecular target: KRAS G12C-BRAF complex (Homo sapiens (Human), UniProt P01116+P62937, G12C); assay: KRAS-BRAF with CYPA (500 nM) interaction assay (TR-FRET), G12C; type: biochemical
Chain of KRAS G12C-BRAF complex (P01116-2 other isoform, or with tags, fused parts or gaps G12C): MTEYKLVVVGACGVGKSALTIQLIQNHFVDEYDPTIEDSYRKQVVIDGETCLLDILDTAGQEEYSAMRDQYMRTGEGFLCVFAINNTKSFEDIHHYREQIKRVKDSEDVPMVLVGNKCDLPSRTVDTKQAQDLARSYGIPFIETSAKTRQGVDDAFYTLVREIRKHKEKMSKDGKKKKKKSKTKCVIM
Chain of KRAS G12C-BRAF complex (P62937 whole entry): as the sequence (P62937 whole entry) above
Description: as §1

[6] = test system: phosphorylation of ERK, KRAS G12C in NCI-H358 cells; assay: pERK inhibition assay, KRAS G12C in NCI-H358 cells; type: cell-based, human; conditions: Homo sapiens, NCI-H358, 4 hours
Description: as §4, §5, §6

[7] = test system: phosphorylation of ERK, KRAS G12D in AGS cells; assay: pERK inhibition assay, KRAS G12D in AGS cells; type: cell-based, human; conditions: Homo sapiens, 4 hours
Description: as §4, §5, §6

[8] = test system: SW620 cells (KRAS G12V); assay: Cell viability assay (Cell Counting Kit-8), KRAS G12V; type: cell-based; conditions: Homo sapiens, SW-620, SW620, 72 hrs
Description: as §2, §3

[9] = test system: AGS cells (KRAS G12D); assay: Cell viability assay (Cell Counting Kit-8), KRAS G12D; type: cell-based; conditions: Homo sapiens, 72 hrs
Description: as §2, §3

Chain of KRAS G12D-BRAF complex (P01116-2 other isoform, or with tags, fused parts or gaps G12D): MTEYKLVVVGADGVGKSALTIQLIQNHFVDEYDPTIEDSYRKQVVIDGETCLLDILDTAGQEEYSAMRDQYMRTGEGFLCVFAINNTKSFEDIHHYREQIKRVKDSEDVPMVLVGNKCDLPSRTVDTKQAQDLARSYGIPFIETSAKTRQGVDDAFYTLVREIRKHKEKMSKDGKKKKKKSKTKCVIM
Chain of KRAS G12D-BRAF complex (P62937 whole entry): as the sequence (P62937 whole entry) above

Compound | IC50 [1] [nM] | IC50 [2] [nM] | IC50 [3] [nM] | IC50 [4] [nM] | IC50 [5] [nM] | IC50 [6] [nM] | IC50 [7] [nM] | IC50 [8] [nM] | IC50 [9] [nM]
CCn1c(-c2cc(N3CCOCC3)cnc2[C@H](C)OC)c2c3cc(c(F)cc31)-c1csc(n1)C[C@H](NC(=O)[C@H](C(C)C)N(C)C(=O)NCC(F)(F)F)C(=O)N1CCC[C@H](N1)C(=O)OCC(C)(C)C2 (atropisomer, axis not shown; (M)) [Example 13, (2S)-N-[(7S,13S)-21-ethyl-24-fluoro-(20M)-20-[2-[(1S)-1-methoxyethyl]-5-morpholino-3-pyridyl]-17,17-dimethyl-8,14-dioxo-15-oxa-4-thia-9,21,27,28-tetrazapentacyclo[17.5.2.1^2,5.1^9,13.0^22,26]octacosa-1 (25),2,5 (28),19,22 (26),23-hexaen-7-yl]-3-methyl-2-[methyl(2,2,2-trifluoroethylcarbamoyl)amino]butanamide] | > 10000 | 26 | > 10000 | 8 | > 10000 | 19 | 46 | 29 | 447
CO[C@@H](C)c1ncc(N2CCN(CC(F)(F)F)CC2)cc1-c1c2c3c(F)c(ccc3n1CC(F)(F)F)-c1csc(n1)C[C@H](NC(=O)[C@H](C(C)C)N(C)C(=O)N1CCOCC1)C(=O)N1CCC[C@H](N1)C(=O)OCC(C)(C)C2 (atropisomer, axis not shown; (M)) [Example 17, N-[(1S)-1-[[(7S,13S)-25-fluoro-(20M)-20-[2-[(1S)-1-methoxyethyl]-5-[4-(2,2,2-trifluoroethyl)piperazin-1-yl]-3-pyridyl]-17,17-dimethyl-8,14-dioxo-21-(2,2,2-trifluoroethyl)-15-oxa-4-thia-9,21,27,28-tetrazapentacyclo[17.5.2.1^2,5.1^9,13.0^22,26]octacosa-1 (25),2,5 (28),19,22 (26),23-hexaen-7-yl]carbamoyl]-2-methyl-propyl]-N-methyl-morpholine-4-carboxamide] | 7 | 4 | 4 | 4 | 2 | 8 | 4 | 6 | 46
